Reference: publication PMC5762204 (Journal of Pharmaceutical Analysis, 2014)

Test: Pharmacokinetic study in rats after oral administration
Type: in vivo
Conditions: male, Wistar, rat, plasma

With `CCC(C)(C)C(=O)O[C@H]1C[C@@H](C)C=C2C=C[C@H](C)[C@H](CC[C@@H]3C[C@@H](O)CC(=O)O3)[C@H]21` [Simvastatin, simvastatin] the Tmax was 0.75 h and the half-life was 5.6 ± 0.1 h.
For `N[C@@H](CC(=O)N1CCn2c(nnc2C(F)(F)F)C1)Cc1cc(F)c(F)cc1F` [Sitagliptin, sitagliptin], the Tmax was 1 h and the half-life was 6.1 ± 0.2 h.
